The values that follow come from patent publication US20220273678A1 (priority 2020, published 2022).

The test system of one experiment is IFN-β, IFN-λ. In kind it is cell-based, human. The conditions noted are these: infected Calu3, 48 hpi, Mito-MES 100-1000 nM; methanesulfonate.
For the next experiment, the system named is SARS-CoV-2. Nature of the experiment: Post-exposure prophylaxis in two parents of a household exposed to SARS-CoV-2. It is filed as in vivo, human. From the text: FIG. 8-a show the timeline of exposure, symptoms and diagnostic tests in household. Two parents [[…], A1 with history of chronic myelogenous leukemia (CML) and healthy parent 39 years, A2] were notified on Dec. 5, 2020 [defined as day 5 (D5)], that the schoolteacher (T1) of their child (C1) tested positive for SARS-CoV-2 and developed symptoms of Covid-19. C1 had 6-h exposure to T1 on November 30 (with masks) (D0). The family had no other exposure to any other person between November 20-30 (D-10 to D0) given Thanksgiving Day on November 26 (D-4). Several children and parents from the same school class were infected with Covid-19 within the first 2 weeks of December. C1 developed fever (100.4° F.; 38° C.) and fatigue 2.5 days after exposure (D0) that lasted 3 days (D2-D5) and remained asymptomatic since then. The second child (C2) was asymptomatic until D12 when they developed fever (100.4° F.; 38° C.), fatigue and coryza on D12-D14. A1 and A2 started Mito-MES on D4. […]
One important consideration with COVID-19 testing is that it is often unclear how exactly the NP swab was obtained (by healthcare worker or not and whether the posterior or anterior nasopharynx were assessed). […]

Each structure is given as a SMILES string.

In the case of `COC1=C(OC)C(=O)C(CCCCCCCCCC[P+](c2ccccc2)(c2ccccc2)c2ccccc2)=C(C)C1=O.CS(=O)(=O)[O-]` [Mito-MES, 10-(4,5-dimethoxy-2-methyl-3,6-dioxo-1,4-cyclohexadienyl) decyl triphenylphosphonium methanesulfonate], the “secreted and cellular IFN-β and IFN-λ” value in the experiment on IFN-β, IFN-λ is “did not impact increase in secreted and cellular IFN-β”. The “plasma IgG to SARS-CoV-2 S1 protein” value in the experiment on SARS-CoV-2 (each parent, three timepoints over 5 weeks) was “undetectable levels”. Further, the “symptoms and virological / serological confirmation of infection” value in the experiment with SARS-CoV-2 (two parents, 20 mg/day oral Mito-MES from D4, 6 weeks) was “remained asymptomatic and without virological and serological confirmation of infection”.
